Read-outs that look alike come from different tables or passages of the source. Blank lines part the entries; values can stand above or below the molecule they belong to.
What was measured:
[1] = biological target: T1, ThnA4 (ThnA4-His6), NAD(P)H-dependent ferredoxin reductase of tetralin dioxygenase (Sphingopyxis macrogoltabida, UniProt Q8GJE9); assay: UV-visible spectrum after FAD reconstitution; assay type: binding; details: 2 mM FAD added during cell disruption; FAD partly lost during purification
T1 construct: full length, 339 residues, C-terminal His6 (pET23b, plasmid pMPO784), E. coli NCM631 host; plant-type [2Fe-2S]; FAD-reconstituted

[2] = biological target: T1, ThnA4 (ThnA4-His6), NAD(P)H-dependent ferredoxin reductase of tetralin dioxygenase; assay: stopped-flow pre-steady-state reduction of ThnA4ox, fit of kA→B; assay type: biochemical; details: oxidized enzyme, potassium phosphate 50 mM pH 7.4, NaCl 10 mM, glycerine 5%, 15 °C, hydride donor

T1 sequence (Q8GJE9 entry or part of it): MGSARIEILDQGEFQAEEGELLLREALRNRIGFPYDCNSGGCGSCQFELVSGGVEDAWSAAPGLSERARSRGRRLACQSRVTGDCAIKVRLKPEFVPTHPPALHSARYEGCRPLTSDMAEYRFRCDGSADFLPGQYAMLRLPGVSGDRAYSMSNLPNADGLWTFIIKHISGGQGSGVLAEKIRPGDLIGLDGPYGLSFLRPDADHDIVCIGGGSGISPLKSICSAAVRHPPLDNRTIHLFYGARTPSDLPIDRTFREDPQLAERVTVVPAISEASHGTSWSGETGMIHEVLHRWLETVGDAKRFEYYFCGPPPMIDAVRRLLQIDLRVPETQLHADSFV

SMILES: Cc1cc2nc3c(=O)[nH]c(=O)nc-3n(C[C@H](O)[C@H](O)[C@H](O)COP(=O)(O)OP(=O)(O)OC[C@H]3O[C@@H](n4cnc5c(N)ncnc54)[C@H](O)[C@@H]3O)c2cc1C [FAD]
- UV-visible spectrum after FAD reconstitution [1]: reconstituted ThnA4-His6 contains the expected FAD and [2Fe-2S] redox centers

- Kd ([2]; read-out: Kd^NADPH): 54 ± 13 µM
SMILES: NC(=O)C1=CN([C@@H]2O[C@H](COP(=O)(O)OP(=O)(O)OC[C@H]3O[C@@H](n4cnc5c(N)ncnc54)[C@H](OP(=O)(O)O)[C@@H]3O)[C@@H](O)[C@H]2O)C=CC1 [NADPH]

- Kd ([2]; upper limit estimated from saturation profile, read-out: Kd^NADH): < 0.4 µM
SMILES: NC(=O)C1=CN([C@@H]2O[C@H](COP(=O)(O)OP(=O)(O)OC[C@H]3O[C@@H](n4cnc5c(N)ncnc54)[C@H](O)[C@@H]3O)[C@@H](O)[C@H]2O)C=CC1 [NADH]

From article PMC4814904, “Redox proteins of hydroxylating bacterial dioxygenases establish a regulatory cascade that prevents gratuitous induction of tetralin biodegradation genes” (Scientific Reports, 2016)
